Measured values reported in US20260077051A1, “COMPOUNDS FOR THE DEGRADATION OF EGFR KINASE” (BeOne Medicines I GmbH, priority 2023, published 2026).

Columns and labels:
[1] = biological target: T1, EGFR L858R (BaF3-L858R cells) (Homo sapiens, UniProt P00533, L858R); assay: EGFR degradation in BaF3-L858R cells (HTRF assay); format: cell-based; conditions: 16 h treatment; for DC50: IC50(DC50) of EGFR degradation; for Dmax: maximum percentage of inhibition (degradation)
T1 construct: host or cells: BaF3
Protocol: BaF3-L858R (abbv. L858R) cell were purchased from Kangyuan Bochuang Biotechnology (Beijing) Co., Ltd.
(§1) H1975-#8 and BaF3-L858R cells are treated with compounds diluted in 0.1% DMSO cell culture medium on day 2, incubate for 16 h, 37° C., 5% CO2. the final concentration of compounds in all assay is start with 10 uM, 5-fold dilution, total 8 doses were included.
(§2) After 16 h treatment, for H1975-#8 cells, add 100 ul HTRF 1× lysis buffer to each well; for BaF3-L858R cells, add 20 μl 4× lysis buffer to each well; seal the plate and incubate 1 hour at room temperature on a plate shaker; Once the cells are lysed, 16 μL of cell lysate are transferred to a PE 384-well HTRF detection plate; 4 μL of pre-mixed HTRF antibodies are added to each well; Cover the plate with a plate sealer, spin 1000 rpm for 1 min, Incubate overnight at room temperature; Read on BMG PheraStar with HTRF protocol (337 nm-665 nm-620 nm).
(§3) The inhibition (degradation) percentage of the compound was calculated by the following equation:
(§4) High control=Cell group with added DMSO and without compound, indicating microplate readings without EGFR degradation;
(§5) Dmax is the maximum percentage of inhibition (degradation).
(§6) The IC50(DC50) value of a compound can be obtained by fitting the following equation
(§7) Wherein, X and Y are known values, and IC50, Hillslope, Top and Bottom are the parameters obtained by fitting with software. Y is the inhibition percentage (calculated from the equation), X is the concentration of the compound; IC50 is the concentration of the compound when the 50% inhibition is reached. The smaller the IC50 value is, the stronger the inhibitory ability of the compound is. Vice versa, the higher the IC50 value is, the weaker the ability the inhibitory ability of the compound is; Hillslope represents the slope of the fitted curve, generally around 1*; Bottom represents the minimum value of the curve obtained by data fitting, which is generally 0%±20%; Top represents the maximum value of the curve obtained by data fitting, which is generally 100%±20%. The experimental data were fitted by calculating and analyzing with Dotmatics data analysis software.

[2] = biological target: T2, EGFR-L858R/C797S (H1975-clone #8 cells) (Homo sapiens, UniProt P00533, C797S/L858R); assay: EGFR degradation in H1975-clone#8 (L858R/C797S) cells (HTRF assay); format: cell-based; conditions: 16 h treatment; for DC50: IC50(DC50) of EGFR degradation; for Dmax: maximum percentage of inhibition (degradation)
T2 construct: expressed in transfected cells; host or cells: H1975 (lentiviral transduction, endogenous EGFR knocked out, single clone #8)
Protocol: H1975-clone #8 (L858R/C797S): EGFR-L858R/C797S were stably expressed in H1975 cell lines by lentivirus-mediated over-expression, respectively. The EGFR over-expressed cells then underwent knockout, in which the EGFR targeting sgRNA was designed to only target the endogenous EGFR copies and preserve the exogenous EGFR copies. Followed by the knockout, the edited H1975 cells were seeded in 96 well plates at the concentration of […], cultured for about 2 weeks to allow single clones formation. The formed clones were screened by DNA sequencing and whole exon sequencing analysis for the desired edition. H1975-clone #8 were finally confirmed as homozygous L858R/C797S EGFR clones.
as §1, §2, §3, §4, §5, §6, §7

T2 sequence (P00533 25-1210 C797S/L858R): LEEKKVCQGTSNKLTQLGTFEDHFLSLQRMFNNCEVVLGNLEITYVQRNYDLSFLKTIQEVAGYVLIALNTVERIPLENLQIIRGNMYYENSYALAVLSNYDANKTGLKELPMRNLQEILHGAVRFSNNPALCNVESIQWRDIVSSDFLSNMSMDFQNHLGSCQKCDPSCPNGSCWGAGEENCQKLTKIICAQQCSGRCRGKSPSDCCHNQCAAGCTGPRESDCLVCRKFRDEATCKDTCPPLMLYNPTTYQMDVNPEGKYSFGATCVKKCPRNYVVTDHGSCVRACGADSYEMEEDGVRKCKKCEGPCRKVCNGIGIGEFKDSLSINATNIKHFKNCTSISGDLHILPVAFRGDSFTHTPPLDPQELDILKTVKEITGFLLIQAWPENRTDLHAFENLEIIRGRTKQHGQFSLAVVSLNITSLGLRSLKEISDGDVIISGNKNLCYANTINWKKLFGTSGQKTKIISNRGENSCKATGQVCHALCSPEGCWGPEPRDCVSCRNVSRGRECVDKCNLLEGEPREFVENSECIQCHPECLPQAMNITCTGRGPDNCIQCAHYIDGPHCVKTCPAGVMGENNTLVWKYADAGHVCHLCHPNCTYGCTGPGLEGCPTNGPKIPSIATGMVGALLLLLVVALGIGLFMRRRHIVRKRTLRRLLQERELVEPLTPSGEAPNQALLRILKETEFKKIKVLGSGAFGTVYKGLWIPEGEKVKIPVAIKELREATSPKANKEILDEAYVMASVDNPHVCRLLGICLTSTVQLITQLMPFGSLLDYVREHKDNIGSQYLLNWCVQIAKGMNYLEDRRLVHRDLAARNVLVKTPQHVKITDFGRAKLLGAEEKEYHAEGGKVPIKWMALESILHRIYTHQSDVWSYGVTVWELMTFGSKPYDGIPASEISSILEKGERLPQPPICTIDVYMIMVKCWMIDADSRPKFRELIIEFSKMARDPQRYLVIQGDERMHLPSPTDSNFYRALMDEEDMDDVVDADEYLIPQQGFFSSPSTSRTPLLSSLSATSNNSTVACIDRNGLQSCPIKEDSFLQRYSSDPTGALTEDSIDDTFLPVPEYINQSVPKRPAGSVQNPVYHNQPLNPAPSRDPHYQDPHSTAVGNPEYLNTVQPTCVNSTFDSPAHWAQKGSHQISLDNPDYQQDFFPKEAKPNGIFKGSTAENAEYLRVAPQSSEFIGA
T1 sequence (P00533 25-1210 L858R): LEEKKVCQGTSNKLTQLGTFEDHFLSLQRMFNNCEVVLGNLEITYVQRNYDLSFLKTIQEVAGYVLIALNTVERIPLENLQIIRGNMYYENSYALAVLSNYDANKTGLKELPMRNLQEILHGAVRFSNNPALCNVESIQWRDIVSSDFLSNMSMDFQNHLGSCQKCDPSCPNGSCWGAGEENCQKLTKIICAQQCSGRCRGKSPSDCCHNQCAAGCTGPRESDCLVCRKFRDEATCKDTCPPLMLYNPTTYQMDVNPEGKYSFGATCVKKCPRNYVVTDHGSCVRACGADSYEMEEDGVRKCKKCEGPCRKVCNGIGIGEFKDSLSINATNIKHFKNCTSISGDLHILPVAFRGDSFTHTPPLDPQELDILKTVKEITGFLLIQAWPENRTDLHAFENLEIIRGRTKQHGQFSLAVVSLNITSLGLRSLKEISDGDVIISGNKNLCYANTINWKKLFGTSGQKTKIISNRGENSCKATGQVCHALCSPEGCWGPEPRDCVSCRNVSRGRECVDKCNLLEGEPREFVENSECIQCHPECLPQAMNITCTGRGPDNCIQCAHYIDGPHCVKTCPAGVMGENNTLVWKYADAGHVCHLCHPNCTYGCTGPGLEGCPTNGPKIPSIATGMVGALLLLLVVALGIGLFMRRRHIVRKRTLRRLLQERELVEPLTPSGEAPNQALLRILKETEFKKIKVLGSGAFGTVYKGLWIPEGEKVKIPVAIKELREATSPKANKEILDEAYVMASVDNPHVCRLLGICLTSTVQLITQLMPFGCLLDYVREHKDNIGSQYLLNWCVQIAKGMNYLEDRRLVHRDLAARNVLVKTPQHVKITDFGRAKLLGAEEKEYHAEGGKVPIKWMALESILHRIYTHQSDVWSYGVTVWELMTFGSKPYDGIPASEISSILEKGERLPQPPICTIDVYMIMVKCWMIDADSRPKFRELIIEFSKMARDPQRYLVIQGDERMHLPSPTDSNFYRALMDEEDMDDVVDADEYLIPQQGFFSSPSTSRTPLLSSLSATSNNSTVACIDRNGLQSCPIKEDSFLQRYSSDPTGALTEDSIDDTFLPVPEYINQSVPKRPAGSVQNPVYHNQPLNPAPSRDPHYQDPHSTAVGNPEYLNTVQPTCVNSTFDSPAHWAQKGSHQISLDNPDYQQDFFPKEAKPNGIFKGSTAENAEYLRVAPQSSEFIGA

Row | DC50 [1] | Dmax [1] | DC50 [2] | Dmax [2] | Structure (SMILES)
1 | 15.7 nM | 68.4% | – | – | Cc1cc2cc(n1)-c1cnn(C)c1OCC[C@H]1C[C@@H]1CN1/C(=N/C2=O)Nc2ccc(NC3CN(C4CCN(c5cnc(C6CCC(=O)NC6=O)cc5C)CC4)C3)cc21 (stereo partly shown) [Example 1, 3-(5-(4-(3-(((7^1S,7^2R,E)-1^1,2^6-dimethyl-3-oxo-5^2,5^3-dihydro-1^1H,5^1H-10-oxa-4-aza-5 (2,1)-benzo[d]imidazola-2 (2,4)-pyridina-1 (4,5)-pyrazola-7 (1,2)-cyclopropanacyclodecaphane-5^6-yl)amino)azetidin-1-yl)piperidin-1-yl)-4-methylpyridin-2-yl)piperidine-2,6-dione]
2 | 11.6 nM | 85.5% | 3.1 nM | 65.2% | Cc1cc2cc(n1)-c1cnn(C)c1OCC[C@H]1C[C@@H]1CN1/C(=N/C2=O)Nc2ccc(N3CCN(C4CCN(c5ccc(C6CCC(=O)NC6=O)nc5C)CC4)C[C@@H]3C)cc21 (stereo partly drawn) [Example 3, 3-(5-(4-((S)-4-((7^1S,7^2R,E)-1^1,2^6-dimethyl-3-oxo-5^2,5^3-dihydro-1^1H,5^1H-10-oxa-4-aza-5 (2,1)-benzo[d]imidazola-2 (2,4)-pyridina-1 (4,5)-pyrazola-7 (1,2)-cyclopropanacyclodecaphane-5-yl)-3-methylpiperazin-1-yl)piperidin-1-yl)-6-methylpyridin-2-yl)piperidine-2,6-dione]
3 | 72.2 nM | 70.3% | – | – | Cc1cc2cc(n1)-c1cnn(C)c1OCC[C@H]1C[C@@H]1CN1/C(=N/C2=O)Nc2ccc(N3CCC(N4CC5CCC4CN5c4ccc(C5CCC(=O)NC5=O)nc4C)CC3)cc21 (stereo partly shown) [Example 5, 3-(5-(5-(1-((7^1S,7^2R,E)-1^1,2^6-dimethyl-3-oxo-5^2,5^3-dihydro-1^1H,5^1H-10-oxa-4-aza-5 (2,1)-benzo[d]imidazola-2 (2,4)-pyridina-1 (4,5)-pyrazola-7 (1,2)-cyclopropanacyclodecaphane-5^6-yl)piperidin-4-yl)-2,5-diazabicyclo[2.2.2]octan-2-yl)-6-methylpyridin-2-yl)piperidine-2,6-dione]
4 | 17.1 nM | 82.2% | – | – | Cc1cc2cc(n1)-c1cnn(C)c1OCC[C@H]1C[C@@H]1CN1/C(=N/C2=O)Nc2ccc(N3CC4CCC3CN4C3CCN(c4ccc(C5CCC(=O)NC5=O)nc4C)CC3)cc21 (stereo partly shown) [Example 6, 3-(5-(4-(5-((7^1S,7^2R,E)-1^1,2^6-dimethyl-3-oxo-5^2,5^3-dihydro-1^1H,5^1H-10-oxa-4-aza-5 (2,1)-benzo[d]imidazola-2 (2,4)-pyridina-1 (4,5)-pyrazola-7 (1,2)-cyclopropanacyclodecaphane-5^6-yl)-2,5-diazabicyclo[2.2.2]octan-2-yl)piperidin-1-yl)-6-methylpyridin-2-yl)piperidine-2,6-dione]
5 | 85.4 nM | 74.9% | – | – | Cc1cc2cc(n1)-c1cnn(C)c1OCC[C@H]1C[C@@H]1CN1/C(=N/C2=O)Nc2ccc(N3CCN(C[C@@H]4CCN(c5ccc(C6CCC(=O)NC6=O)nc5C)C4)CC3)cc21 (stereo partly drawn) [Example 9, 3-(5-((S)-3-((4-((7^1S,7^2R,E)-1^1,2^6-dimethyl-3-oxo-5^2,5^3-dihydro-1^1H,5^1H-10-oxa-4-aza-5 (2,1)-benzo[d]imidazola-2 (2,4)-pyridina-1 (4,5)-pyrazola-7 (1,2)-cyclopropanacyclodecaphane-5^6-yl)piperazin-1-yl)methyl)pyrrolidin-1-yl)-6-methylpyridin-2-yl)piperidine-2,6-dione]
6 | 6.97 nM | 91.3% | > 10000 nM | 31.2% | Cc1cc2cc(n1)-c1cnn(C)c1OCC[C@H]1C[C@@H]1CN1/C(=N/C2=O)Nc2ccc(N3CCN(C4CN(C5CCN(c6cc(F)c([C@H]7CCC(=O)NC7=O)c(F)c6)CC5)C4)CC3)cc21 [Example 10, (R)-3-(4-(4-(3-(4-((7^1S,7^2R,E)-1^1,2^6-dimethyl-3-oxo-5^2,5^3-dihydro-1^1H,5^1H-10-oxa-4-aza-5 (2,1)-benzo[d]imidazola-2 (2,4)-pyridina-1 (4,5)-pyrazola-7 (1,2)-cyclopropanacyclodecaphane-5^6-yl)piperazin-1-yl)azetidin-1-yl)piperidin-1-yl)-2,6-difluorophenyl)piperidine-2,6-dione]
7 | 7.62 nM | 71.2% | 1.44 nM | 51.8% | Cc1cc2cc(n1)-c1cnn(C)c1OCC[C@H]1C[C@@H]1CN1/C(=N/C2=O)Nc2ccc(N3CCN([C@H]4CCN(c5cnc(C6CCC(=O)NC6=O)cc5C)C[C@H]4F)CC3)cc21 (stereo partly drawn) [Example 11, 3-(5-((3R,4S)-4-(4-((7^1S,7^2R,E)-1^1,2^6-dimethyl-3-oxo-5^2,5^3-dihydro-1^1H,5^1H-10-oxa-4-aza-5 (2,1)-benzo[d]imidazola-2 (2,4)-pyridina-1 (4,5)-pyrazola-7 (1,2)-cyclopropanacyclodecaphane-5^6-yl)piperazin-1-yl)-3-fluoropiperidin-1-yl)-4-methylpyridin-2-yl)piperidine-2,6-dione]
8 | 18.4 nM | 73.6% | 16 nM | 54.4% | Cc1cc2cc(n1)-c1cnn(C)c1OCC[C@H]1C[C@@H]1CN1/C(=N/C2=O)Nc2ccc(N3CCN([C@@H]4CCN(c5cnc(C6CCC(=O)NC6=O)cc5C)C[C@@H]4F)CC3)cc21 (stereo partly drawn) [Example 12, 3-(5-((3S,4R)-4-(4-((7^1S,7^2R,E)-1^1,2^6-dimethyl-3-oxo-5^2,5^3-dihydro-1^1H,5^1H-10-oxa-4-aza-5 (2,1)-benzo[d]imidazola-2 (2,4)-pyridina-1 (4,5)-pyrazola-7 (1,2)-cyclopropanacyclodecaphane-5^6-yl)piperazin-1-yl)-3-fluoropiperidin-1-yl)-4-methylpyridin-2-yl)piperidine-2,6-dione]
9 | 8.09 nM | 82.2% | – | – | Cc1cc2cc(n1)-c1cnn(C)c1OCC[C@H]1C[C@@H]1CN1/C(=N/C2=O)Nc2ccc(N3CCN(CC4CN(c5ccc6c(c5)C(C)(C)C(=O)N6C5CCC(=O)NC5=O)C4)CC3)cc21 (stereo partly shown) [Example 13, 3-(5-(3-((4-((7^1S,7^2R,E)-1^1,2^6-dimethyl-3-oxo-5^2,5^3-dihydro-1^1H,5^1H-10-oxa-4-aza-5 (2,1)-benzo[d]imidazola-2 (2,4)-pyridina-1 (4,5)-pyrazola-7 (1,2)-cyclopropanacyclodecaphane-5^6-yl)piperazin-1-yl)methyl)azetidin-1-yl)-3,3-dimethyl-2-oxoindolin-1-yl)piperidine-2,6-dione]

Row | Structure (SMILES) | DC50 [1] | Dmax [1] | DC50 [2] | Dmax [2]
10 | Cc1cc2cc(n1)-c1cnn(C)c1OCC[C@H]1C[C@@H]1CN1/C(=N/C2=O)Nc2ccc(N3CCC(N4CC5CCC(C4)N5c4ccc(C5CCC(=O)NC5=O)nc4C)CC3)cc21 (stereo partly shown) [Example 4, 3-(5-(3-(1-((7^1S,7^2R,E)-1^1,2^6-dimethyl-3-oxo-5^2,5^3-dihydro-1^1H,5^1H-10-oxa-4-aza-5 (2,1)-benzo[d]imidazola-2 (2,4)-pyridina-1 (4,5)-pyrazola-7 (1,2)-cyclopropanacyclodecaphane-5^6-yl)piperidin-4-yl)-3,8-diazabicyclo[3.2.1]octan-8-yl)-6-methylpyridin-2-yl)piperidine-2,6-dione] | 52.5 nM | 63.6% | – | –
